Laboratory results as given in patent US20080199517A1, “Composition and a process thereof” (priority 2007, published 2008).

Tested on: castrated male adolescent rats
Experiment: Anabolic activity in castrated rats: organ weight
Assay type: in vivo, rats of Swiss Wistar strain
Details: castrated animals, result in words
Method: Male Adolescent rats of Swiss Wistar strain of body weight 55 gms are chosen for this experiment and are castrated. The castrated groups are divided into 2 groups. • 1. Control group castrated animals n=6 • 2. Drug treated castrated animals treated with test compound at 25 mg/kg n=6
Both the groups are fed ad libitum food and water and observed for 28 days. Their serum at the beginning of the experiment and at the end of the experiment are drawn and checked for Total testosterone, and free testosterone. The animals are sacrificed at the end of the experiment and seminal vesicle; ventral Prostate and Levator Ani are removed and weighed. These organ weights are compound with the control animals.

CC(COC1OC(CO)C(O)C(O)C1O)C(C)CC1(O)CC2CC3C4CC=C5CC(OC6OC(CO)C(O)C(O)C6OC6OC(C)C(O)C(O)C6O)CCC5(C)C4CCC3(C)C2C1C (stereo not shown) [saponin of structural formula I]
anabolic activity: does not showed any activity
